Measurements as given in US11141421B2, “Antitumor agent for biliary tract cancer and method for treating biliary tract cancer” (FUJIFILM Corporation, priority 2018, dated 2021).

What was measured:
bile duct cancer = assay: Administration of Compound A via intravenous injection to bile duct cancer patients; therapeutic effects judged by MRI image diagnosis; assay type: in vivo, human; design: key to Therapeutic effects of the present invention: CR (Complete Response): A state in which the tumor completely disappeared.; PR (Partial Response): A state in which a sum of the sizes of the tumors was reduced by 30% or more.; SD (Stable Disease): A state in which the size of the tumor did not change.; PD (Progressive Disease): A state in which a sum of the sizes of the tumors was increased by 20% or more and also, the size was increased by 5 mm or more even at an absolute value, or a new lesion appeared
Procedure: This liquid pharmaceutical preparation was used in the subsequent therapy. Besides, the therapy was carried out at the University of Texas MD Anderson Cancer Center (hereinafter referred to as MDACC), and at Sarah Cannon Research Institute (hereinafter referred to as SCRI) in Denver, State of Colorado, U.S.A.
(§1) A medication cycle consisting of administration of Compound A via intravenous injection once a week from the 1st week to the 3rd week and cessation of medication in the 4th week was repeated to bile duct cancer patients Specifically, 28 days was set at one cycle, and on the 1st day, 8th day and 15th day, Compound A was administered to the patients. This cycle consisting of 28 days was repeated. A single dose of compound A was set from 40 mg/m^2 to 135 mg/m^2.
The therapeutic effects were judged according to the following criteria.
Evaluation targets were confirmed by performing image diagnosis using MRI (magnetic resonance imaging), and were then judged according to the following criteria:
CR (Complete Response): A state in which the tumor completely disappeared.
PR (Partial Response): A state in which a sum of the sizes of the tumors was reduced by 30% or more.
PD (Progressive Disease): A state in which a sum of the sizes of the tumors was increased by 20% or more and also, the size was increased by 5 mm or more even at an absolute value, or a new lesion appeared.

tumor = details: orally administered to mice; cited from earlier work
[1] = Side effects / drug associated AE in the clinical trial of Compound A; assay type: in vivo, human
Procedure: as §1
Bile duct cancer patient 6 is intrahepatic cholangiocarcinoma. […] Further, due to neutropenia, the dose was changed to 67.5 mg/m^2. Thereafter, SD could be maintained for 34 weeks or more.

## Nc1ccn([C@@H]2S[C@H](CO)[C@@H](O)[C@@H]2F)c(=O)n1 [Compound A, 1-(2-deoxy-2-fluoro-4-thio-β-D-arabinofuranosyl)cytosine]
Bile duct cancer; bile duct cancer patient 1 (intrahepatic bile duct cancer), single dose 40 mg/m^2 iv, days 1, 8, 15 of 28-day cycle
  Therapeutic effects of the present invention: PR (PR (Partial Response): A state in which a sum of the sizes of the tumors was reduced by 30% or more.)
Bile duct cancer; bile duct cancer patient 1, single dose increased to 60 mg/m^2 or 90 mg/m^2
  Therapeutic effect after dose increase: PR (PR (Partial Response): A state in which a sum of the sizes of the tumors was reduced by 30% or more.)
Bile duct cancer; bile duct cancer patient 2 (intrahepatic bile duct cancer), single dose 60 mg/m^2 iv
  Therapeutic effects of the present invention: PR (PR (Partial Response): A state in which a sum of the sizes of the tumors was reduced by 30% or more.)
Bile duct cancer; bile duct cancer patient 3 (bile duct cholangiocarcinoma), initial dose 60 mg/m^2, changed to 90 mg/m^2
  Therapeutic effects of the present invention: SD
Bile duct cancer; bile duct cancer patient 3, initial dose 60 mg/m^2, changed to 90 mg/m^2
  time for which SD could be maintained: ≥ 32 weeks
Bile duct cancer; bile duct cancer patient 4, single dose 90 mg/m^2 iv
  Therapeutic effects of the present invention: PD (PD (Progressive Disease): A state in which a sum of the sizes of the tumors was increased by 20% or more and also, the size was increased by 5 mm or more even at an absolute value, or a new lesion appeared.)
Bile duct cancer; bile duct cancer patient 5, single dose 90 mg/m^2 iv
  Therapeutic effects of the present invention: SD
Bile duct cancer; bile duct cancer patient 6 (intrahepatic cholangiocarcinoma), single dose 90 mg/m^2 in Table 1 (text: 135, then 90, then 67.5 mg/m^2)
  Therapeutic effects of the present invention: SD
Bile duct cancer; bile duct cancer patient 6, after dose changes 135 to 90 to 67.5 mg/m^2
  time for which SD could be maintained: ≥ 34 weeks
tumor
  antitumor activity: strong antitumor activity
[1]; bile duct cancer patient 6, dose 90 mg/m^2 (then changed to 67.5 mg/m^2)
  side effect leading to further dose change: neutropenia
[1]; bile duct cancer patient 6, initial dose 135 mg/m^2
  side effects observed: hypotension and suspected bacteremia
[1]; clinical trial, patients including bile duct cancer patients, 40 to 135 mg/m^2 iv
  most common drug associated AE among two or more patients: fever, nausea, chills, itch, irritating, dry skin, skin separation, and fatigue
